Earlier results as cited in paper PMC8477420 (ChemMedChem, 2020).

Tests used:
MOLM-13 cells = conditions: monotherapy
OCI-AML-3 cells = conditions: monotherapy
OCI-AML-2 cells = conditions: monotherapy

Compound	inhibition of Bcl-2 (Bcl-2)	viability (MOLM-13 cells)	viability (OCI-AML-3 cells)	viability (OCI-AML-2 cells)
COc1ccc(C2=N[C@@H](c3ccc(Cl)cc3)[C@@H](c3ccc(Cl)cc3)N2C(=O)N2CCNC(=O)C2)c(OC(C)C)c1 [Nutlin-3a]	low micromolar inhibition			
COc1ncc(-c2nc3c(n2C(C)C)[C@H](c2ccc(Cl)cc2)N(c2cc(Cl)cn(C)c2=O)C3=O)c(OC)n1 [HDM201]		80%	no reduction	80%
Cc1c(-c2c(-c3ccc(F)o3)sc3ncnc(O[C@H](Cc4ccccc4OCc4ccnn4CC(F)(F)F)C(=O)O)c23)ccc(OCCN2CCN(C)CC2)c1Cl [Compound S63845]		60–70%	60–70%	95%
